Activity calls are given as the source filed them.
Tests used:
SN12K1 = experiment: cells; assay type: functional; conditions: Homo sapiens
P388 = experiment: cells; assay type: functional; conditions: Mus musculus
P388/ADR = experiment: cells; assay type: functional; conditions: Mus musculus
[1] = molecular target: T1, Replicative DNA helicase DnaB (Mycobacterium tuberculosis, UniProt P9WMR3); experiment: DnaB intein splicing inhibitors, dose response, biochemical, cell-free fluorescence (AID 449749); assay type: functional
T1 sequence (P9WMR3 whole entry): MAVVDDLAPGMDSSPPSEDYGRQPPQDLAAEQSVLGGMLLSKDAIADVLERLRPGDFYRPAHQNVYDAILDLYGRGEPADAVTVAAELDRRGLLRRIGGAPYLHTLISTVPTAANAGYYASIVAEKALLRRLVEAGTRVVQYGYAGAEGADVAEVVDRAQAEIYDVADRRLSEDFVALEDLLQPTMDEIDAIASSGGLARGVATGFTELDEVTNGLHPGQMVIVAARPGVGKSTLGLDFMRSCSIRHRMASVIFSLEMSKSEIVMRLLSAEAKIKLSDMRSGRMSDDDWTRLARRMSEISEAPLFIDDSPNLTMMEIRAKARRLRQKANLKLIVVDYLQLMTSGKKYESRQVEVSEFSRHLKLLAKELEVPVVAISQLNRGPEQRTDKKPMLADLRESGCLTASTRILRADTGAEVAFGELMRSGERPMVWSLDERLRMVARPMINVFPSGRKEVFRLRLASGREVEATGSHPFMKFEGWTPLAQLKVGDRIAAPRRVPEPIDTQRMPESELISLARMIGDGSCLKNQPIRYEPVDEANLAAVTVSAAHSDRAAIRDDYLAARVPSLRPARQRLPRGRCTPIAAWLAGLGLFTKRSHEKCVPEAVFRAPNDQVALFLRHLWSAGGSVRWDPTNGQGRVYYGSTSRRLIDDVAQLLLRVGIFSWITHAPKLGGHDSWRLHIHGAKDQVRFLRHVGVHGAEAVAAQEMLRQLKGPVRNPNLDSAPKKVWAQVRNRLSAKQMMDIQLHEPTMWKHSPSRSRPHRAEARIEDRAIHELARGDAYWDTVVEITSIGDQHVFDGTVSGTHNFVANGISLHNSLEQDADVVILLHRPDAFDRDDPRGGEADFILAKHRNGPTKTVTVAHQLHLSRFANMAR

[2] = molecular target: T2, Apoptotic protease-activating factor 1 (Homo sapiens, UniProt O14727); assay type: functional
T2 sequence (O14727 whole entry): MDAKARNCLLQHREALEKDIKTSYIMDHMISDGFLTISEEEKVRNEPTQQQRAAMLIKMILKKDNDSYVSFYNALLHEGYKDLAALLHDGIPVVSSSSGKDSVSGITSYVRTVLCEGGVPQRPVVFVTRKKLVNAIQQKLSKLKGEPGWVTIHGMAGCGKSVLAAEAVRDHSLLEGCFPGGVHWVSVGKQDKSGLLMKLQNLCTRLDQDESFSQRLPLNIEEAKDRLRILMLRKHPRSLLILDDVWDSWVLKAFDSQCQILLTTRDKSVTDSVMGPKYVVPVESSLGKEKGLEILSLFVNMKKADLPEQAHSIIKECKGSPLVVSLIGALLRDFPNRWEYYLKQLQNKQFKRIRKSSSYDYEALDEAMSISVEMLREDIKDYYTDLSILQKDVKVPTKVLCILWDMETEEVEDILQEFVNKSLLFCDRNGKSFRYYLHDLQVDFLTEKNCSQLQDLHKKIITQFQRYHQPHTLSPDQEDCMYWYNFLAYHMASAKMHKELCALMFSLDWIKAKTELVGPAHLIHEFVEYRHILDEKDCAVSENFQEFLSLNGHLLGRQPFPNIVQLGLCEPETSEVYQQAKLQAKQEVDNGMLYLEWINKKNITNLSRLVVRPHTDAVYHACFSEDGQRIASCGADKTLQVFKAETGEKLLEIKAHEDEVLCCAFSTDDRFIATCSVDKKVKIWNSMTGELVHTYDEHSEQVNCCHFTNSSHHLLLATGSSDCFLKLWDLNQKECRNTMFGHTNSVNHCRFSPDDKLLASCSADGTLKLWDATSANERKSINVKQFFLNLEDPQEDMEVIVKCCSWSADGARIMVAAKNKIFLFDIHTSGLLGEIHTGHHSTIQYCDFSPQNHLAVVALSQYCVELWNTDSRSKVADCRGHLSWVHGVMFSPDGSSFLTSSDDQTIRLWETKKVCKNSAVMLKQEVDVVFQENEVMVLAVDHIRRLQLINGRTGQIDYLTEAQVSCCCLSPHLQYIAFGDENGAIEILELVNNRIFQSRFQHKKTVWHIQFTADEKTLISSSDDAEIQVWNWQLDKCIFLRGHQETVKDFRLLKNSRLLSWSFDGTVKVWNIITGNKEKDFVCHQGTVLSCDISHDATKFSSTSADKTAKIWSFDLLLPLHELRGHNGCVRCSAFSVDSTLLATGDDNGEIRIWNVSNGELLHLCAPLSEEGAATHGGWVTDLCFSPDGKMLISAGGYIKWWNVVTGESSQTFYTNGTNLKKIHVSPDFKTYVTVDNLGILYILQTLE

Protein RecA = molecular target: T3, Protein RecA (Mycobacterium tuberculosis, UniProt P9WHJ3); experiment: Fluorescence Cell-Free Homogeneous Dose Retest to Identify Inhibitors of RecA-Intein Splicing Activity. [Related pubchem assays (depositor defined):AID2097, AID2223, AID489010, AID492950]; assay type: functional
T3 sequence (P9WHJ3 whole entry): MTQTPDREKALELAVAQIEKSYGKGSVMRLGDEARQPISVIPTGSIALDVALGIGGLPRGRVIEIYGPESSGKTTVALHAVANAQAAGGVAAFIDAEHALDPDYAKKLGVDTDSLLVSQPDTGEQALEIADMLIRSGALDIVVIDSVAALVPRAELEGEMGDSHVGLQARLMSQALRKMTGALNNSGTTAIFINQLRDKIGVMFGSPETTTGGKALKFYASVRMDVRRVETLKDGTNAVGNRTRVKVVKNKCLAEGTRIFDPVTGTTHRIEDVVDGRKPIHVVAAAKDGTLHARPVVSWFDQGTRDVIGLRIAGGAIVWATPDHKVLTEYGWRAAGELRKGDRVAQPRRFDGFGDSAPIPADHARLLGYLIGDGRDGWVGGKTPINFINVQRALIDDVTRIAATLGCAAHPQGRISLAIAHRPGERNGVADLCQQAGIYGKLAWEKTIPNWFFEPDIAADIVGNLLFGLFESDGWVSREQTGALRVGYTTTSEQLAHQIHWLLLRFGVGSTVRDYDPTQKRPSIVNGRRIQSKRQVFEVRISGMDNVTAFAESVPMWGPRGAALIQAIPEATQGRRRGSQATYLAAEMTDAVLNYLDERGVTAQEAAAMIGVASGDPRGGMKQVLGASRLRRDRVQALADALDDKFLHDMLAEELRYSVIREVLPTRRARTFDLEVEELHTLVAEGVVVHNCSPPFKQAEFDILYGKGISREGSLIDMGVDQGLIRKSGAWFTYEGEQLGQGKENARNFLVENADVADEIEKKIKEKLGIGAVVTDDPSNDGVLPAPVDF

[3] = molecular target: T4, Low molecular weight phosphotyrosine protein phosphatase (Homo sapiens, UniProt P24666); assay type: functional; conditions: read-out: IC50_Mean;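 further: Dose-response confirmation assay measuring inhibition of LMPTP enzyme activity by fluorescence intensity read-out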
T4 sequence (P24666 whole entry): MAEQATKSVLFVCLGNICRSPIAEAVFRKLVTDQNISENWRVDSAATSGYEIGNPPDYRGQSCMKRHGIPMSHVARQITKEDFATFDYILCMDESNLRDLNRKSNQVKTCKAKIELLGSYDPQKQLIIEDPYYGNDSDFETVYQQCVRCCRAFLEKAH

Leucine aminopeptidase = molecular target: T5, Leucine aminopeptidase (Plasmodium falciparum 3D7, UniProt Q8IL11); experiment: P. falciparum M17LAP inhibitors, primary screen, biochemical, fluorogenic H-Leu-NHMec substrate, 1536-well (AID 1619); assay type: functional
T5 sequence (Q8IL11 whole entry): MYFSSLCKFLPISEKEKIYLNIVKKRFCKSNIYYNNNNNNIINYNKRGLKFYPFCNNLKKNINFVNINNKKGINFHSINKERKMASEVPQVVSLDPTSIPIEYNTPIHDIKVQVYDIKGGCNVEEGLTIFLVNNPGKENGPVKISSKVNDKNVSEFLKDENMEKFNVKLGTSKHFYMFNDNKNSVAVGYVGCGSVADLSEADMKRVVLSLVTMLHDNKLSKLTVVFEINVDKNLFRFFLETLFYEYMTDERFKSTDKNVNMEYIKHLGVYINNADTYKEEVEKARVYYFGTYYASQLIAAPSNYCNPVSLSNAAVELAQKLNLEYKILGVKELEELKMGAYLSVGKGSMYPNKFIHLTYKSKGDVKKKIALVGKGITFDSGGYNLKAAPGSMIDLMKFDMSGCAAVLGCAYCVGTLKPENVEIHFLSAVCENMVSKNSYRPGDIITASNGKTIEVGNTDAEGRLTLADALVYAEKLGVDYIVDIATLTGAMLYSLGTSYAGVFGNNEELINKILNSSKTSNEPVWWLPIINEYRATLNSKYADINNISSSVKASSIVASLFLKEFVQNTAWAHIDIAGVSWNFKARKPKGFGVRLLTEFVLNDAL

Melanocortin receptor 4 = Melanocortin receptor 4 (Homo sapiens, UniProt P32245); assay type: functional, cell-based;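 further: Cell-based assay with luminescence read-out, confirmatory dose-response testing for agonist activity of biased ligands at MC4R; human U2OS cells with tagged receptor and beta-arrestin; potency of agonists that increase receptor coupling to beta-arrestin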
[4] = reduction of Shn3 3'UTR-driven luciferase in osteoblasts – cell-based, Clone20 osteoblasts, firefly luciferase, cherry-picked, dose response (AID 624132); assay type: functional;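 further: firefly luciferase luminescence from reporter carrying the Shn3 3'UTR in osteoblasts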
[5] = molecular target: Photoreceptor-specific nuclear receptor (Homo sapiens, UniProt Q9Y5X4); assay type: functional, cell-based;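 further: CHO-S cells with Gal4-NCOR and VP16-NR2E3 two-hybrid luciferase reporter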
[6] = non-specific 3'UTR reporter inhibition in Clone20-Shn3RL – cell-based, Renilla luciferase, cherry-picked, counter-screen for Shn3 inhibitor project, dose response (AID 624133); assay type: functional
[7] = loss of viability in HepG2 cells – cell-based, CellTiter-Glo, cherry-picked, cytotoxicity control for Shn3 inhibitor project, dose response (AID 624134); assay type: functional
[8] = Fluorescence-based cell-based high throughput dose response assay for inhibitors of the interaction of nucleotide-binding oligomerization domain containing 2 (NOD2) and the receptor-interacting serine-threonine kinase 2 (RIPK2).; assay type: functional; conditions: Homo sapiens
Bcl-2-related protein A1 = molecular target: T6, Bcl-2-related protein A1 (Mus musculus, UniProt Q07440); assay type: functional;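 further: confirmatory dose–response counterscreen on Bfl-1, used to check hits from a UBC13 polyubiquitin inhibitor campaign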
T6 sequence (Q07440 whole entry): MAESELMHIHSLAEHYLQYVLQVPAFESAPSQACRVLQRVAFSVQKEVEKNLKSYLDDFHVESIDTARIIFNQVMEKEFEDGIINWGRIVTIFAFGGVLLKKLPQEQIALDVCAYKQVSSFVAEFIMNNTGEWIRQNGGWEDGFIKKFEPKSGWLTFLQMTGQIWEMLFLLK

[9] = molecular target: T7, Ubiquitin-conjugating enzyme E2 N (Homo sapiens, UniProt P61088); assay type: functional
T7 sequence (P61088 whole entry): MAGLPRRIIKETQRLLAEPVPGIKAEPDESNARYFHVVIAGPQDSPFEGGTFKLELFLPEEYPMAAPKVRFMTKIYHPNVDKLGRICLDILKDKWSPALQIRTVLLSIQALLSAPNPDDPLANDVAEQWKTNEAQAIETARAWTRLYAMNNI

[10] = molecular target: T7, Ubiquitin-conjugating enzyme E2 N; assay type: functional; remark: listed apart in the source

Melanocortin receptor 4, sequence (P32245 whole entry): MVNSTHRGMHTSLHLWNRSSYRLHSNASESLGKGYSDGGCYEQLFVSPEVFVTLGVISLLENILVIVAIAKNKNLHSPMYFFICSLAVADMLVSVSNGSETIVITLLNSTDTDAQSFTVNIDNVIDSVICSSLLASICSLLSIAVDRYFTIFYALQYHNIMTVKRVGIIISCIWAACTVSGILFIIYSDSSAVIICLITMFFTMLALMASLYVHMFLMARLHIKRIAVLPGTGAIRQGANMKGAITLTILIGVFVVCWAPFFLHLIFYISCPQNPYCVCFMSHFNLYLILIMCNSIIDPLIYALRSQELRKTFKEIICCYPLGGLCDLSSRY
Photoreceptor-specific nuclear receptor, sequence (Q9Y5X4 whole entry, the tested form may be a part): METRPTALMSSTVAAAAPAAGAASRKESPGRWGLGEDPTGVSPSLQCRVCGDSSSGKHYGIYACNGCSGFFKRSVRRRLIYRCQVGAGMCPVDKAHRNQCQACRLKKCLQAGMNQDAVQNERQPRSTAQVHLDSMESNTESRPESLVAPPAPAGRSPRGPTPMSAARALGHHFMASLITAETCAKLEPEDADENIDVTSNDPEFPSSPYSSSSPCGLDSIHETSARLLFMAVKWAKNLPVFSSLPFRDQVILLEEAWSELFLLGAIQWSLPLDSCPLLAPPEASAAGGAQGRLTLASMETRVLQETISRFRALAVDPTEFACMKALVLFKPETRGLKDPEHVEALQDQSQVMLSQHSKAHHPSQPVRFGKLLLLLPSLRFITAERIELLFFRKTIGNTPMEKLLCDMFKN

CN1C(=O)c2ccccc2NC(=O)c2cnn(C)c21
GI50 (SN12K1): > 100 µM (inactive)
GI50 (P388): > 100 µM (inactive)
GI50 (P388/ADR): > 100 µM (inactive)

CC(=O)N(C1=C(N2CCOCC2)C(=O)c2ccccc2C1=O)c1ccc(C(=O)O)cc1
AC50 [1]: 16.7 µM (active)
IC50 [2]: 26.2 µM (active)
EC50 (Protein RecA): 1.01 µM (active)

COC1=CC(=O)c2c(c(O)c3oc4cc(OC)cc(C)c4c(=O)c3c2O)C1=O [BIKAVERIN]
GI50 (SN12K1): 0.422 µM (active)
GI50 (P388): 0.695 µM (active)
GI50 (P388/ADR): 1.04 µM (active)

COc1ccc2nc3ccccc3c(NCCN(C)CCCl)c2c1
GI50 (SN12K1): 0.684 µM (active)
GI50 (P388): 0.256 µM (active)
GI50 (P388/ADR): 0.424 µM (active)

Nc1ccn(C2OC(COP(=O)(O)Oc3ccccc3)C(O)C2O)c(=O)n1 (stereo unspecified)
GI50 (SN12K1): 5.56 µM (inactive)
GI50 (P388): 0.264 µM (active)
GI50 (P388/ADR): 0.675 µM (active)

CCn1cc(C(=O)O)c(=O)c2cc(F)c(N3CCN(C(=S)NC(=O)c4ccccc4Cl)CC3)cc21
IC50 [3]: 5.84 µM (active)

C/C(=C\c1ccco1)C1C(C#N)=C(N)Oc2[nH]nc(-c3ccc(C)cc3)c21 (stereo unspecified)
IC50 (Leucine aminopeptidase): 132 µM (active)
EC50 (Melanocortin receptor 4): > 89.2 µM (inactive)

CN(CC(=O)Nc1ccccc1Cl)C(=O)c1cccc(S(=O)(=O)N2CCN(c3ccc(F)cc3)CC2)c1
AC50 [4]: 3.62 µM (active)
IC50 [5]: 8.34 µM (active)
AC50 [6]: 3.53 µM (active)
AC50 [7]: > 70 µM (inactive)

CC(=O)Nc1cc(-c2cccnc2)cn2c(-c3cccc(C(F)(F)F)c3)cnc12
EC50 (Melanocortin receptor 4): 84.1 µM (inactive)

CN(C)CCC(=O)C(Cc1ccccc1)c1ccccc1 (stereo unspecified)
IC50 [8]: 4.6 µM (active)
IC50 (Bcl-2-related protein A1): > 20 µM (inactive)
IC50 [9]: 13.3 µM (active)
IC50 [10]: > 20 µM (inactive)

CN(Cc1ccc(Cl)c(Cl)c1)C(=O)c1cccc(S(=O)(=O)N2CCN(Cc3ccccc3)CC2)c1
IC50 [2]: 42.7 µM (active)
AC50 [4]: 3.47 µM (active)
IC50 (Bcl-2-related protein A1): > 20 µM (inactive)
AC50 [6]: 7.2 µM (active)
IC50 [9]: 18.4 µM (active)
IC50 [10]: 12.5 µM (active)
AC50 [7]: > 70 µM (inactive)

Cc1nnc(C)c2c(C)n(-c3ccc4ncccc4c3)c(C)c12
IC50 [3]: 45.2 µM (inactive)

CC(=O)c1c(C)[nH]c(C(=O)OCC(=O)c2ccc(Br)cc2)c1C
IC50 [5]: 3.35 µM (active)

Reference: ChEMBL document CHEMBL1201862, “PubChem BioAssay data set” (2004)
